In patent publication EP0471345B1, “Determination of biogenous amines” (BOEHRINGER MANNHEIM GMBH, priority 1990, dated 1992):

Key:
Assay in all cases: competitive ELISA: relative affinity and cross-reactivity of monoclonal antibodies against Histamin-ITCB
[1] = system: monoklonaler Antikörper 1.47.74 (ECACC 90071902) gegen Histamin-ITCB; conditions: amount of Histamin-ITCB for 50 % signal drop (50 % IC) in ELISA; antibody 1.47.74
Description: (§1) Zur Ermittlung der Relativen Affinität werden Kompetitionskurven mit dem homologen Antigen ermittelt und ausgewertet.
(§2) Mikrotiterplatten werden mit 100 »l pro well einer Lösung aus 10 »g Thermo-SA-Streptavidin/ml (Herstellung nach EP-A 0269 092) in Puffer pH 9,6 eine Stunde bei Raumtemperatur beschichtet. Die Platten werden mit 0,9% Natriumchloridlösung gewaschen. […] Darauf werden 100 »l Probe in PBS eine Stunde bei Raumtemperatur inkubiert und erneut mit 0,9 % Natriumchloridlösung gewaschen. Es folgt eine weitere Inkubation (1 Stunde bei Raumtemperatur) mit 100 »l/well einer Lösung von 150 mU/ml eines Schaf-anti-Maus-IgG-Peroxidase-Konjugats (Boehringer Mannheim GmbH, Best.-Nr. 821489) in PBS/O,5 % RSA. Nach einem weiteren Waschschritt mit 0,9 % Natriumchloridlösung wird die Peroxidaseaktivität durch Zugabe von 100 »l/well einer ABTS®-Lösung (100 mg ABTS; 3,25 mmol/l Natriumperborat; 39,8 mmol/l Citronensäure; 60 mmol/l Natriumphosphat; pH 4,4-4,5) 30 min bei Raumtemperatur und anschließender Extinktionsmessung bei 405 nm bestimmt.
(§3) Die Kreuzreaktion wurde anschließend mit folgender Formel berechnet: [formula] C = Konzentration des jeweiligen Antigens, die zur Erreichung von 50 % des maximalen Signals erforderlich ist.

[2] = system: monoklonaler Antikörper 1.97.235 gegen Histamin-ITCB; conditions: amount of Histamin-ITCB for 50 % signal drop (50 % IC) in ELISA; antibody 1.97.235
Description: as §1, §2, §3

[3] = system: monoklonaler Antikörper 1.83.201 gegen Histamin-ITCB; conditions: amount of Histamin-ITCB for 50 % signal drop (50 % IC) in ELISA; antibody 1.83.201
Description: as §1, §2, §3

[4] = system: monoklonaler Antikörper 1.25.53 gegen Histamin-ITCB; conditions: amount of Histamin-ITCB for 50 % signal drop (50 % IC) in ELISA; antibody 1.25.53
Description: as §1, §2, §3

[5] = system: monoklonaler Antikörper 1.17.44 (ECACC 90071901) gegen Histamin-ITCB; conditions: amount of Histamin-ITCB for 50 % signal drop (50 % IC) in ELISA; antibody 1.17.44
Description: as §1, §2, §3

[6] = system: monoklonaler Antikörper 1.68.168 gegen Histamin-ITCB; conditions: amount of Histamin-ITCB for 50 % signal drop (50 % IC) in ELISA; antibody 1.68.168
Description: as §1, §2, §3

[7] = system: monoklonaler Antikörper 1.36.59 gegen Histamin-ITCB; conditions: amount of Histamin-ITCB for 50 % signal drop (50 % IC) in ELISA; antibody 1.36.59
Description: as §1, §2, §3

[8] = system: monoklonaler Antikörper 1.54.95 gegen Histamin-ITCB; conditions: amount of Histamin-ITCB for 50 % signal drop (50 % IC) in ELISA; antibody 1.54.95
Description: as §1, §2, §3

SMILES: O=C(O)c1cccc(NC(=S)NCCc2c[nH]cn2)c1 [Histamin-ITCB, N-(3-Carboxyphenyl)-N'-[2-(4-imidazolyl)ethyl]thioharnstoff]
- Relative Affinität zu Histamin-ITCB [1]: 0,8 ng/ml
- Relative Affinität zu Histamin-ITCB [2]: 1,5 ng/ml
- Relative Affinität zu Histamin-ITCB [3]: 0,75 ng/ml
- Relative Affinität zu Histamin-ITCB [4]: 1 ng/mL
- Relative Affinität zu Histamin-ITCB [5]: 0,5 ng/ml
- Relative Affinität zu Histamin-ITCB [6]: 1,4 ng/ml
- Relative Affinität zu Histamin-ITCB [7]: 1 ng/mL
- Relative Affinität zu Histamin-ITCB [8]: 1,5 ng/ml
